From patent publication US8785470B2, “Heterocyclic compounds and uses thereof” (Infinity Pharmaceuticals, Inc., priority 2011, dated 2014)
Read-outs that look alike come from different tables or passages of the source.

Experiments:
[1] = tested on: phospho-AKT in RAJI cells (PI3Kδ); assay: PI3Kδ selective assay, phospho-AKT in RAJI cells; format: cell-based; settings: RAJI cells stimulated with anti-human IgM; read-out: IC50 for phospho-AKT, RAJI cell model
In short: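 Serum-starved RAJI B-lymphoma cells stimulated with anti-human IgM to trigger B-cell receptor signaling; compound effect read as reduction of phospho-AKT, for example detected with phospho-AKT antibodies.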

[2] = tested on: phospho-AKT in RAW 264.7 cells (PI3Kγ); assay: PI3Kγ selective assay, phospho-AKT in RAW 264.7 cells; format: cell-based; settings: Mus musculus, RAW264.7, stimulated with C5a, read-out: IC50 for phospho-AKT, RAW 264.7 cell model
In short: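 Serum-starved RAW 264.7 macrophages are stimulated with the GPCR agonist C5a and treated with compound before, with or after stimulation. Inhibition is read as reduced C5a-induced phospho-AKT, detected for example with phospho-AKT antibodies.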

[3] = tested on: phospho-AKT in SKOV-3 cells (PI3Kα); assay: PI3Kα selective assay, phospho-AKT in SKOV-3 cells; format: cell-based; settings: Homo sapiens, SK-OV-3; ranges between 1 μM and 10 μM and greater than 10 μM; read-out: IC50 for phospho-AKT, SKOV-3 cell model
Excerpt: A compound's ability in selectively inhibiting PI3Kα can be assessed using SKOV-3 cells, i.e., human ovarian carcinoma cell line. Briefly, SKOV-3 cells, in which mutant PI3Kα is constitutively active, can be treated with test compounds. Test compounds' ability to inhibit AKT phosphorylation in SKOV-3 cells, therefore, is indicative of selective inhibition of PI3Kα. Thus, by monitoring the reduction of phospho-AKT in SKOV-3 cells (using for example, phospho-AKT antibodies), a compound's potential efficacy in selectively inhibiting PI3Kα can be assessed.
Certain compounds provided herein (e.g., Compounds 5, 49, 138, 326, 328, 354, 359, 389, and 391) were tested in SKOV-3 cell model using procedures as described above.

[4] = tested on: phospho-AKT in 786-O cells (PI3Kβ); assay: PI3Kβ selective assay, phospho-AKT in 786-O cells; format: cell-based; settings: Homo sapiens, 786-0, read-out: IC50 for phospho-AKT, 786-O cell model
Excerpt: A compound's ability in selectively inhibiting PI3Kβ can be assessed using 786-O cells, i.e., human kidney carcinoma cell line. Briefly, 786-O cells, in which PI3Kβ is constitutively active, can be treated with test compounds. Test compounds' ability to inhibit AKT phosphorylation in 786-O cells, therefore, is indicative of selective inhibition of PI3β. Thus, by monitoring the reduction of phospho-AKT in 786-O cells (using for example, phospho-AKT antibodies), a compound's potential efficacy in selectively inhibiting PI3Kβ can be assessed.
Certain compounds provided herein (e.g., Compounds 5, 49, 138, 326, 328, 354, 359, 389, and 391) were tested in 786-O cell model using procedures as described above.

PI3Kα = molecular target: T1, PI3Kα (Homo sapiens, UniProt P42336); assay: PI3-Kinase HTRF assay, PI3Kα; format: biochemical; settings: 10 μM ATP, PIP2 at 10 μM, read-out: IC50 P13Kα
T1 construct: purchased Millipore Corporation 14-602-K
T1 sequence (P42336 whole entry): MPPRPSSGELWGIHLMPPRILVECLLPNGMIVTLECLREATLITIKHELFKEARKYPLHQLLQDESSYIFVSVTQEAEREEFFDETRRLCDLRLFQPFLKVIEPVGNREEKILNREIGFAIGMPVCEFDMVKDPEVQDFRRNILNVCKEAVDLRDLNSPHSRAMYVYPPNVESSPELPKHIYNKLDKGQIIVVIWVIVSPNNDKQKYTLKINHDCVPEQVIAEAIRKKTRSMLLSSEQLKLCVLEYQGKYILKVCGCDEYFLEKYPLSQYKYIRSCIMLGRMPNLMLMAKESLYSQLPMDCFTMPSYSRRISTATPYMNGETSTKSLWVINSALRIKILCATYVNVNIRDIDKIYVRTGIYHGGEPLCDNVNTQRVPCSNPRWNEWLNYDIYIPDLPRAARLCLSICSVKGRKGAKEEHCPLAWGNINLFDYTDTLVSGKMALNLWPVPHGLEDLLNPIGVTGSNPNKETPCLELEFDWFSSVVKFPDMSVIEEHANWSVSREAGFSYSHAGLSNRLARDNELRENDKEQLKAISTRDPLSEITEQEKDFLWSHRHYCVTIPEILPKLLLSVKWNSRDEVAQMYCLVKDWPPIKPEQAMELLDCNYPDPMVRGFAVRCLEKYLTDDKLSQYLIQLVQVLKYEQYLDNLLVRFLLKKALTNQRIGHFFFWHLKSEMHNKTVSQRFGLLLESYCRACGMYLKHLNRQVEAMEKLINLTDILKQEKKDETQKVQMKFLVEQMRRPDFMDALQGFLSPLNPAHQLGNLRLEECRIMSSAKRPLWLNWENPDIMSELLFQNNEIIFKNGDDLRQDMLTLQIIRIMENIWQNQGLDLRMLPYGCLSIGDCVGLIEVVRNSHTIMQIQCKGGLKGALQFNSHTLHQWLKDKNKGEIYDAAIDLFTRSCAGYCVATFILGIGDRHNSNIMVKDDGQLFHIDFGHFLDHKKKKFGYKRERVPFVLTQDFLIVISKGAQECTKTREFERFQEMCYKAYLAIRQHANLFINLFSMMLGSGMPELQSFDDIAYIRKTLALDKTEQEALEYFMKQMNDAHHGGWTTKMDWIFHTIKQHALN
T1 sequence (P27986 whole entry partner): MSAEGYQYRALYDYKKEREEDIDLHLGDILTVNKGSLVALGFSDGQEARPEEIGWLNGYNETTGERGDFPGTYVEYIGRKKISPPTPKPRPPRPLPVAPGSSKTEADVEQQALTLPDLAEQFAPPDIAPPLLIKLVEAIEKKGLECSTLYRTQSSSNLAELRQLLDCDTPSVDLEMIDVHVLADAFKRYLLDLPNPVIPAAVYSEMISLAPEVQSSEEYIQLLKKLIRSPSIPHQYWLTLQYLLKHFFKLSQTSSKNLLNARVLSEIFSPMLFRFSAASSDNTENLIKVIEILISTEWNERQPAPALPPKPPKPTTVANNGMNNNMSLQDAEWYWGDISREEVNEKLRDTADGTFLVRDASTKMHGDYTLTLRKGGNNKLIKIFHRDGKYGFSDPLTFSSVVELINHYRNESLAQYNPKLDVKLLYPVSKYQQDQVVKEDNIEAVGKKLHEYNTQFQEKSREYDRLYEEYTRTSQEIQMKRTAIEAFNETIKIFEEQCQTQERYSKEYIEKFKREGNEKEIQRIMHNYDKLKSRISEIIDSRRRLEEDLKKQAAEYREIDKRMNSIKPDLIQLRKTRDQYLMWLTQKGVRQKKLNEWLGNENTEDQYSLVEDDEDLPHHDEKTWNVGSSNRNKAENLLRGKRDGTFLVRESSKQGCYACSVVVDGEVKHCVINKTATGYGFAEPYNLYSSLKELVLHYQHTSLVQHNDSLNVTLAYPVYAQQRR
In short: (§1)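 Purified recombinant human PI3Kα, β, γ or δ (0.25-0.3 μg/ml) preincubated 15 min at room temperature with compound (2% DMSO) and 10 μM PIP2, then reacted 1 h with 10 μM ATP. PIP3 product detected by competitive HTRF (GST-PH domain/biotin-PIP3); IC50 from 12-point curves, 20 μM to 0.1 nM, by nonlinear regression.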

PI3Kβ = molecular target: T2, PI3Kβ (Homo sapiens, UniProt P42338); assay: PI3-Kinase HTRF assay, PI3Kβ; format: biochemical; settings: bins Greater than 10 μM and Greater than 1 μM to 10 μM; 10 μM ATP, PIP2 at 10 μM
T2 construct: purchased Millipore Corporation 14-603-K
T2 sequence (P42338 whole entry): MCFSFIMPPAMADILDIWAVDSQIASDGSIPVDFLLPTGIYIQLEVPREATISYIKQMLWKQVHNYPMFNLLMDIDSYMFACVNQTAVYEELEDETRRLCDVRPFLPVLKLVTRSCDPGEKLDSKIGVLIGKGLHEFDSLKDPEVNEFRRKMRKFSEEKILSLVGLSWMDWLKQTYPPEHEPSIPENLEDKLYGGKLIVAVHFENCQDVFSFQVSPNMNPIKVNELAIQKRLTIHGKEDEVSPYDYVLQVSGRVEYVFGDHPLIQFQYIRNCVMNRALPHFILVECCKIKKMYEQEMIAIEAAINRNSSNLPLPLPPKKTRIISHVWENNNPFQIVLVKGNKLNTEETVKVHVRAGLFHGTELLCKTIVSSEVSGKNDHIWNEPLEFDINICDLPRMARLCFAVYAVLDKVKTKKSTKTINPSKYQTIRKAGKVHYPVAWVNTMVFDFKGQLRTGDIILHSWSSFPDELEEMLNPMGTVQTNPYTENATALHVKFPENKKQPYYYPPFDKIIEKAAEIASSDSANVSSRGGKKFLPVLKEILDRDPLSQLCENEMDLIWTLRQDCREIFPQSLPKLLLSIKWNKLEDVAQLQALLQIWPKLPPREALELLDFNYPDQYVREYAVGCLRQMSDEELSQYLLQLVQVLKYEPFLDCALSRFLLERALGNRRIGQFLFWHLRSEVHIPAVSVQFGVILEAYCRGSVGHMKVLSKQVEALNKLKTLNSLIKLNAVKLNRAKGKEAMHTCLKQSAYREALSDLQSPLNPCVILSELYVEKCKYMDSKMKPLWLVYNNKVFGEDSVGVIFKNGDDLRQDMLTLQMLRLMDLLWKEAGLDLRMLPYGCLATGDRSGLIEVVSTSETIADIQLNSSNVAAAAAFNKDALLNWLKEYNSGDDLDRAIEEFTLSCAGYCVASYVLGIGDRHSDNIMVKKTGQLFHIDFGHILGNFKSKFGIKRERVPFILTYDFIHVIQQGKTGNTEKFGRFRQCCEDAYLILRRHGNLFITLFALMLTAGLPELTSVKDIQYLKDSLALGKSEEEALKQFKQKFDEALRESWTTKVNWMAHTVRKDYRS
T2 sequence (P27986 whole entry partner): as the sequence (P27986 whole entry partner) above
In short: as §1

PI3Kδ = molecular target: T3, PI3Kδ (Homo sapiens, UniProt O00329); assay: PI3-Kinase HTRF assay, PI3Kδ; format: biochemical; settings: 10 μM ATP, PIP2 at 10 μM
T3 construct: purchased Millipore Corporation 14-604-K
T3 sequence (O00329 whole entry): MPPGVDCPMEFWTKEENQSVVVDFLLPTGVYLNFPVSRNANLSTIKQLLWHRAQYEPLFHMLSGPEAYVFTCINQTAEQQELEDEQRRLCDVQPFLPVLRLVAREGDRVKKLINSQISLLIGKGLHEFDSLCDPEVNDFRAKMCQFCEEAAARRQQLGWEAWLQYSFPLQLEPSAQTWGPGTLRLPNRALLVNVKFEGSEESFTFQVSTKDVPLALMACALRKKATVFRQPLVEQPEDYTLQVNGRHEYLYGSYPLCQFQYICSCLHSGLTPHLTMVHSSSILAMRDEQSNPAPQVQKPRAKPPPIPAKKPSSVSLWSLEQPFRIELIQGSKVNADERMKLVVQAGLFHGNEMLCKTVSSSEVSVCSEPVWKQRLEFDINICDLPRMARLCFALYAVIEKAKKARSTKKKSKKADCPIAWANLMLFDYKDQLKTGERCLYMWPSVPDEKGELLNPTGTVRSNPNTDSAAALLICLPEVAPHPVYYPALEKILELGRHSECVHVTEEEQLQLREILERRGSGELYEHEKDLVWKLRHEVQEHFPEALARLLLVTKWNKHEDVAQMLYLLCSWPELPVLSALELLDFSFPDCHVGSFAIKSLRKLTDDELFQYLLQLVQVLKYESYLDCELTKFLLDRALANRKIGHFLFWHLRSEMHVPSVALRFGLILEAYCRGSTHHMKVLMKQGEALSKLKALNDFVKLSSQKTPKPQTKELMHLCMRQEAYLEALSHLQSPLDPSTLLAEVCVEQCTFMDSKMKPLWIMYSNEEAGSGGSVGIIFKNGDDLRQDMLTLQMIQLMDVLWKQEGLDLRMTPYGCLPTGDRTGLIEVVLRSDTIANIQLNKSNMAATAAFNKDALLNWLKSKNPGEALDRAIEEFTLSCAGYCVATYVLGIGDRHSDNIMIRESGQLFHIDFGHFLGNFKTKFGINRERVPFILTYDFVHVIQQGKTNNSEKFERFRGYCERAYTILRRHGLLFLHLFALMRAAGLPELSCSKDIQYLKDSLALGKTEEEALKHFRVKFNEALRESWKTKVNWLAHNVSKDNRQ
T3 sequence (P27986 whole entry partner): as the sequence (P27986 whole entry partner) above
Excerpt: (§2) A PI3-Kinase HTRF® assay kit (cat No. 33-016) purchased from Millipore Corporation was used to screen compounds provided herein. This assay used specific, high affinity binding of the GRPI pleckstrin homology (PH) domain to PIP3, the product of a Class 1A or 1B PI3 Kinase acting on its physiological substrate PIP2. During the detection phase of the assay, a complex was generated between the GST-tagged PH domain and biotinylated short chain PIP3. The biotinylated PIP3 and the GST-tagged PH domain recruited fluorophores (Streptavidin-Allophycocyanin and Europium-labeled anti-GST respectively) to form the fluorescence resonance energy transfer (FRET) architecture, generating a stable time-resolved FRET signal. The FRET complex was disrupted in a competitive manner by non-biotinylated PIP3, a product formed in the PI3 Kinase assay.
(§3) PI3 Kinase α, β, γ and δ activity was assayed using the PI3 Kinase HTRF® assay kit (catalogue No. 33-016) purchased from Millipore Corporation. Purified recombinant PI3Kα (catalogue No. 14-602-K), PI3Kβ (catalogue No. 14-603-K), PI3Kγ (catalogue No. 14-558-K) and PI3Kδ (catalogue No. 14-604-K) were obtained from Millipore Corporation. Purified recombinant PI3K enzyme was used to catalyze the phosphorylation of phosphatidylinositol 4,5-bisphosphate (PIP2 at 10 μM) to phosphatidylinositol 3,4,5-trisphosphate (PIP3) in the presence of 10 μM ATP. The assay was carried out in 384-well format and detected using a Perkin Elmer EnVision Xcite Multilabel Reader. Emission ratios were converted into percent inhibitions and imported into GraphPad Prism software. The concentration necessary to achieve inhibition of enzyme activity by 50% (IC50) was calculated using concentrations ranging from 20 μM to 0.1 nM (12-point curve). IC50 values were determined using a nonlinear regression model available in GraphPad Prism 5. […]

PI3Kγ = molecular target: T4, PI3Kγ (Homo sapiens, UniProt P48736); assay: PI3-Kinase HTRF assay, PI3Kγ; format: biochemical; settings: 10 μM ATP, PIP2 at 10 μM
T4 construct: purchased Millipore Corporation 14-558-K
T4 sequence (P48736 whole entry): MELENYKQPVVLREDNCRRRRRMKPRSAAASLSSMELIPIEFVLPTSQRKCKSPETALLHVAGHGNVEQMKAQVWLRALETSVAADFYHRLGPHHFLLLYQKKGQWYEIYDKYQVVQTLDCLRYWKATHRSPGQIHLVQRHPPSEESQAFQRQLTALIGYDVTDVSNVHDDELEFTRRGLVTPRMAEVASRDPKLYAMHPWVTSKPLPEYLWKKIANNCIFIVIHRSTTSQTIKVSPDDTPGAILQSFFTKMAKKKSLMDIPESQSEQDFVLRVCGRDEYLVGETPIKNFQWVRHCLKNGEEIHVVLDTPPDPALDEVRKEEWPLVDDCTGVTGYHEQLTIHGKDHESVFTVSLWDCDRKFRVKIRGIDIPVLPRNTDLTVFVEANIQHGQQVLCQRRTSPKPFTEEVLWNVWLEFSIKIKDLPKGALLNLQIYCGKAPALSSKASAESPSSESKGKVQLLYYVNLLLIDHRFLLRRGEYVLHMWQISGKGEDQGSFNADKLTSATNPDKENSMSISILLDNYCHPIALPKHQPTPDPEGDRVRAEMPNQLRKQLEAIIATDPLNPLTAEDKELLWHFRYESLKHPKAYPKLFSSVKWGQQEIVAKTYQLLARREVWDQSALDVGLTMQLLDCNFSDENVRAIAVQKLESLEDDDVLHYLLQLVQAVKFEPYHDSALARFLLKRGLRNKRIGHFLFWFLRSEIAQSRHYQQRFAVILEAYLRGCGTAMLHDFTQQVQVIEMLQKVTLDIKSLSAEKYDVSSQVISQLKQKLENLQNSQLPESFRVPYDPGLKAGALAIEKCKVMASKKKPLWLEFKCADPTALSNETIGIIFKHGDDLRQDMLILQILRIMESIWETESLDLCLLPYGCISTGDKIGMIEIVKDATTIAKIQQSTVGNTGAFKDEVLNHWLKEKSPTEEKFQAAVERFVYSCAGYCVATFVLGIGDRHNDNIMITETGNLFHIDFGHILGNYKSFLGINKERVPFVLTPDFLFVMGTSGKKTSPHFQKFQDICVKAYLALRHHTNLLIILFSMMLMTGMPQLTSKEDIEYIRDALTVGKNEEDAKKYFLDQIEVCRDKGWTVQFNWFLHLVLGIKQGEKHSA
Excerpt: as §2, §3

Balb/c splenic B cells = assay: B cell activation and proliferation assay; format: cell-based; settings: Mus musculus, read-out: B cell proliferation EC50
In short: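 Balb/c splenic B cells were isolated by Ficoll gradient and magnetic separation, plated at 50.000 cells/well in RPMI/10% FBS, and pre-incubated with compound for 30 min at 37° C (0.2% DMSO). Cells were stimulated for 72 h with a cocktail of 10 μg/ml LPS or 5 μg/ml anti-mouse IgM F(ab′)2 plus 2 ng/ml IL4. Alamar Blue fluorescence (560Ex/590Em) after 5 h gave IC50 or EC50.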

[5] = ranges less than 100 nM and between 100 nM and 1 μM (given as 100-1000)
[6] = ranges between 1 μM and 10 μM and greater than 10 μM
[7] = bins Greater than 10 μM and Greater than 1 μM to 10 μM
[8] = range between 100 nM and 1 μM (given as 100-1000)
[9] = column bins 1 μM to 100 nM (given as 100-1000) and Less than 100 nM

COc1nc(-c2cnc(N)nc2N[C@@H](C)c2cc3cccc(-c4ccc(=O)n(C)c4)c3c(=O)n2-c2ccccc2)cs1 [Compound 391]
IC50 [1]: < 100 nM
IC50 [2, 5]: 100 to 1000 nM
IC50 [3]: > 10000 nM
IC50 [4, 6]: > 10000 nM

CC(C)n1c([C@H](C)Nc2ncnc(N)c2C#N)cc2cccc(-c3ccc(=O)n(C)c3)c2c1=O [Compound 359]
IC50 (PI3Kα; [7]): 1000 to 10000 nM
IC50 (PI3Kβ): 1000 to 10000 nM
IC50 [1]: < 100 nM
IC50 ([2]; range between 1 μM and 10 μM): 1000 to 10000 nM
IC50 [3]: 1000 to 10000 nM
IC50 [4, 8]: 100 to 1000 nM

COc1ncc(-c2cccc3cc([C@H](C)Nc4nc(N)ncc4-c4cncs4)n(-c4ccccc4)c(=O)c23)cn1 [Compound 389]
IC50 (PI3Kα; [7]): 1000 to 10000 nM
IC50 (PI3Kβ): 1000 to 10000 nM
IC50 [1]: < 100 nM
IC50 [2, 5]: 100 to 1000 nM
IC50 [3]: 1000 to 10000 nM
IC50 [4, 6]: 1000 to 10000 nM

C[C@H](Nc1cc(Cl)ncn1)c1cc2cccc(Cl)c2c(=O)n1-c1ccccc1 [Compound 77, (S)-8-chloro-3-(1-(6-chloropyrimidin-4-ylamino)ethyl)-2-phenylisoquinolin-1(2H)-one]
IC50 (PI3Kδ; [7]): 1000 to 10000 nM
IC50 (PI3Kγ; [7]): 1000 to 10000 nM

COc1ncc(-c2cccc3cc([C@H](C)Nc4nc(N)ncc4C#N)n(-c4ccccc4)c(=O)c23)cn1 [Compound 5, (S)-2-amino-4-((1-(8-(2-methoxypyrimidin-5-yl)-1-oxo-2-phenyl-1,2-dihydroisoquinolin-3-yl)ethyl)amino)pyrimidine-5-carbonitrile]
IC50 (PI3Kα; [7]): 1000 to 10000 nM
EC50 (Balb/c splenic B cells; [9]): < 100 nM
IC50 [1]: < 100 nM
IC50 [2, 5]: < 100 nM
IC50 [3]: 1000 to 10000 nM
IC50 [4, 6]: > 10000 nM

C[C@H](Nc1nc(N)ncc1C#N)c1cc2cccc(-c3ccn(C)c(=O)c3)c2c(=O)n1-c1ccccc1 [Compound 182]
IC50 (PI3Kδ; [7]): 1000 to 10000 nM
IC50 (PI3Kγ; [7]): 1000 to 10000 nM

CC(C)n1c([C@H](C)Nc2nc(N)ncc2C#N)cc2cccc(-c3ccc(=O)n(C)c3)c2c1=O [Compound 326]
IC50 (PI3Kα; [7]): 1000 to 10000 nM
IC50 (PI3Kβ): 1000 to 10000 nM
IC50 [1]: < 100 nM
IC50 [2, 5]: 100 to 1000 nM
IC50 [3]: 1000 to 10000 nM
IC50 [4, 8]: 100 to 1000 nM

C[C@H](Nc1nc(N)ncc1NC(=O)c1ccccc1)c1cc2cccc(Cl)c2c(=O)n1-c1ccccc1 [Compound 175]
IC50 (PI3Kδ; [7]): 1000 to 10000 nM
IC50 (PI3Kγ; [7]): 1000 to 10000 nM

CCOc1cncc(-c2cccc3cc([C@H](C)Nc4nc(N)ncc4C#N)n(-c4ccccc4)c(=O)c23)c1 [Compound 115]
IC50 (PI3Kδ; [9]): < 100 nM
IC50 (PI3Kγ; [9]): < 100 nM
IC50 (PI3Kα; [9]): 100 to 1000 nM
IC50 (PI3Kβ): 1000 to 10000 nM
EC50 (Balb/c splenic B cells; [9]): < 100 nM

COc1cc(-c2cccc3cc([C@H](C)Nc4nc(N)ncc4C#N)n(-c4ccccc4)c(=O)c23)ccn1 [Compound 49]
IC50 (PI3Kβ): 1000 to 10000 nM
EC50 (Balb/c splenic B cells; [9]): < 100 nM
IC50 [1]: < 100 nM
IC50 [2, 5]: < 100 nM
IC50 [3]: 1000 to 10000 nM
IC50 [4, 6]: 1000 to 10000 nM

C[C@H](Nc1nc(N)ncc1C(=O)C1CC1)c1cc2cccc(Cl)c2c(=O)n1-c1ccccc1 [Compound 425]
IC50 (PI3Kδ; [7]): 1000 to 10000 nM
IC50 (PI3Kγ; [7]): 1000 to 10000 nM
IC50 (PI3Kα; [7]): 1000 to 10000 nM
IC50 [1]: < 100 nM
IC50 [2, 5]: 100 to 1000 nM

C[C@H](Nc1nc(N)ncc1C(=O)N1CC(F)(F)C1)c1cc2cccc(Cl)c2c(=O)n1-c1ccccc1 [Compound 434]
IC50 (PI3Kδ; [7]): 1000 to 10000 nM
IC50 (PI3Kγ; [7]): 1000 to 10000 nM

C[C@H](Nc1nc(N)ncc1C#N)c1cc2cccc(-c3cccc(N(C)S(C)(=O)=O)c3)c2c(=O)n1-c1ccccc1 [Compound 153]
IC50 (PI3Kδ; [9]): < 100 nM
IC50 (PI3Kγ; [9]): < 100 nM
IC50 (PI3Kα; [9]): 100 to 1000 nM
IC50 (PI3Kβ): 1000 to 10000 nM
EC50 (Balb/c splenic B cells; [9]): < 100 nM

COc1cc(-c2cccc3cc([C@H](C)Nc4nc(N)ncc4C(=O)N4CCOCC4)n(-c4ccccc4)c(=O)c23)ccn1 [Compound 119]
IC50 (PI3Kδ; [7]): 1000 to 10000 nM
IC50 (PI3Kγ; [7]): 1000 to 10000 nM

CCc1ncc(-c2cccc3nc([C@H](C)Nc4nc(N)ncc4C#N)n(-c4ccccc4)c(=O)c23)cn1 [Compound 60]
IC50 (PI3Kδ; [9]): < 100 nM
IC50 (PI3Kγ; [9]): < 100 nM
IC50 (PI3Kα; [7]): > 10000 nM
IC50 (PI3Kβ): > 10000 nM
EC50 (Balb/c splenic B cells; [9]): < 100 nM

COc1cc(N[C@@H](C)c2cc3cccc(Cl)c3c(=O)n2-c2ccccc2)nc(N)n1 [Compound 211]
IC50 (PI3Kδ; [7]): 1000 to 10000 nM
IC50 (PI3Kγ; [7]): 1000 to 10000 nM
EC50 (Balb/c splenic B cells; Greater than 1 μM to 10 μM): 1000 to 10000 nM

COc1cc(-c2cccc3cc([C@H](C)Nc4nc(N)ncc4C(=O)NC4CC4)n(-c4ccccc4)c(=O)c23)ccn1 [Compound 441]
IC50 (PI3Kδ; [7]): 1000 to 10000 nM
IC50 (PI3Kγ; [7]): 1000 to 10000 nM
EC50 (Balb/c splenic B cells; Greater than 1 μM to 10 μM): 1000 to 10000 nM
